From US20140275090A1, “BILE ACID RECYCLING INHIBITORS FOR TREATMENT OF PRIMARY SCLEROSING CHOLANGITIS AND INFLAMMATORY BOWEL DISEASE” (Lumena Pharmaceuticals, Inc., priority 2013, published 2014)

Columns and labels:
[1] = Open-label single-dose [14C]LUM001 oral solution study: radioactivity in plasma, whole blood, urine, feces; assay type: in vivo, human; details: for Radioactive Concentration, Plasma / Radioactive Concentration, Whole Blood: 5 mg [14C]LUM001 oral solution
Description: This was an open-label, one-period, single-dose study of a [^14C]LUM001 oral solution. Eight healthy male subjects received an oral solution of 5 mg [^14C]LUM001 (containing approximately […] per dose). Blood samples were collected at predose and for 72 hours postdose, urine samples were collected predose and for 168 hours postdose and feces were collected predose and for 216 hours postdose. Plasma, whole blood, urine and fecal samples were analyzed for total radioactivity, and selected fecal samples were analyzed for LUM001 and relevant metabolite concentrations. In addition, metabolic profiles in selected fecal samples were obtained using high performance liquid radio chromatography (HPLRC).

serum cholesterol = assay: Serum total, HDL and non-HDL cholesterol, hamsters dosed 28 days; assay type: in vivo, golden Syrian hamster; details: hamster
Text: Male golden Syrian hamsters (126-147 gm) were obtained from Charles Rivers Laboratories and were single housed in a constant temperature environment with alternating 12-hour light and dark cycles. Hamsters were fed Teklad 7001 rodent meal chow at libitum for two weeks before the experimental studies began and switched to Teklad 7001 rodent meal chow supplemented with 0.24% cholesterol on day one of the 28-day experiment. Water was continuously available to the animals. Hamsters were assigned to groups in a manner that normalized each group by pretreatment body weights. SD-5613 was dissolved in an aqueous solution of 0.2% (w/v) Tween 80 and administered Q.D. by intragastric gavage between 9 a.m. and 10 a.m. each morning using a syringe fitted with a flexible feeding tube. Blood samples were collected after 14- and 28-day treatment periods by orbital sinus and cardiac puncture, respectively. Hamsters were anesthetized but not fasted prior to blood collections. Fecal samples were collected during a 48-hour period at the end of days 14 and 28 (i.e. days 13-14 and 27-28). Hamsters were sacrificed using carbon dioxide asphyxiation to obtain the following tissue samples: liver, kidneys, colon and cecum.
Blood was collected at 14 and 28 days from non-fasted hamsters and put into serum separator tubes. The blood cells were separated from the serum by centrifugation at 2000×g for 20 minutes and the serum decanted. Total cholesterol was measured using a Cobas Mira Classic clinical chemistry analyzer (Roche Diagnostic Systems, Indianapolis, Ind.). This analyzer used the cholesterol oxidase reaction to produce hydrogen peroxide which was measured colorimetrically. The cholesterol reagent (Roche Diagnostic Systems) was reconstituted according to package insert. The reagent was calibrated using Roche Calibrator Serum. Commercial bi-level quality control material was analyzed to verify calibration and reagent performance (QC1, QC2-Bio-Rad Laboratories, Irvine, Calif.). The cholesterol content of each sample was measured at 500 nm and 37° C. in a calibrated analyzer by mixing 3 μl of sample with 150 μl cholesterol reagent and 40 μl water.
The Unimate HDL Direct Cholesterol assay (DHDL, Roche Diagnostics) was based on the […] of synthetic polymers and polyanions to the surface of lipoproteins. The combined action of polymers, polyanions and detergent solubilizes cholesterol from HDL, but transforms LDL, VLDL, and chylomicrons into detergent-resistant forms. Solubilized cholesterol was oxidized by the sequential enzymatic action of cholesterol esterase and cholesterol oxidase. The H2O2 produced in this reaction was reacted with chromogens to form a colored dye. The increase in absorbance at 550 nm was directly proportional to the HDL cholesterol concentration of the sample. The test was performed using a Cobas Mira Classic clinical chemistry analyzer (Roche Diagnostic Systems). The DHDL reagent (Roche Diagnostic Systems) was reconstituted according to the package insert. The reagent was calibrated using Roche HDL Direct Calibrator. Commercial bi-level quality control material was analyzed to verify calibration and reagent performance (Liquichek Lipids Control, Level 1 & 2, Bio-Rad Laboratories, Irvine, Calif.). A 2.4 μl aliquot of serum was analyzed in the presence of 240 μl of Reagent 1, 80 μl of Reagent 2 and 5 μl of water at 37° C. and 550 nm wavelength. Triglycerides were hydrolyzed by lipoprotein lipase to glycerol and fatty acids. Glycerol was then phosphorylated to glycerol-3-phosphate by adenosine 5-triphosphate (ATP) in a reaction catalyzed by glycerol kinase (GK). The oxidation of glycerol-3-phosphate was catalyzed by glycerolphosphate oxidase (GPO) to form dihydroxyacetone phosphate and hydrogen peroxide. The hydrogen peroxide reacted with 4-cholorophenol and 4-aminophenazone in the presence of peroxidase to form a quinoneimine complex, which was read at 490-550 nm. […]

CCCCC1(CCCC)CS(=O)(=O)c2ccc(N(C)C)cc2[C@@H](c2ccc(OCc3ccc(C[N+]45CCN(CC4)CC5)cc3)cc2)[C@H]1O [LUM001]
Radioactive Concentration, Plasma ([1]; 0.5 hr): BLQ
Radioactive Concentration, Plasma ([1]; 1 hr): BLQ
Radioactive Concentration, Whole Blood ([1]; 1 hr): 0.000 ng equivalents/g
Radioactive Concentration, Plasma ([1]; 1.5 hr): BLQ
Radioactive Concentration, Plasma ([1]; 2 hr): BLQ
Radioactive Concentration, Plasma ([1]; 2.5 hr): BLQ
Radioactive Concentration, Plasma ([1]; 3 hr): BLQ
Radioactive Concentration, Plasma ([1]; 4 hr): BLQ
Radioactive Concentration, Whole Blood ([1]; 4 hr): 0.000 ng equivalents/g
Radioactive Concentration, Plasma ([1]; 6 hr): BLQ
Radioactive Concentration, Plasma ([1]; 8 hr): BLQ
Radioactive Concentration, Plasma ([1]; 12 hr): BLQ
Radioactive Concentration, Plasma ([1]; 16 hr): 0.000 ng equivalents/mL
Radioactive Concentration, Plasma ([1]; 24 hr): BLQ
Radioactive Concentration, Plasma ([1]; 36 hr): 0.000 ng equivalents/mL
Radioactive Concentration, Plasma ([1]; 48 hr): BLQ
Radioactive Concentration, Plasma ([1]; 60 hr): BLQ
Radioactive Concentration, Plasma ([1]; 72 hr): BLQ
Radioactive Concentration, Whole Blood ([1]; −0.5 hr): 0.000 ng equivalents/g
Percent of Dose ([1]; analyte in feces, mean): 65.0 ± 3.1%
Cumulative % of Total Dose, Total (Urine and Feces) ([1]; radioactivity): 72.532%
Cumulative % of Total Dose, Urine ([1]; radioactivity, 0-2 hr): 0.005%
Cumulative % of Total Dose, Feces ([1]; radioactivity, 0-24 hr): 30.376%
Cumulative % of Total Dose, Urine ([1]; radioactivity, 2-4 hr): 0.012%
Cumulative % of Total Dose, Urine ([1]; radioactivity, 4-8 hr): 0.028%
Cumulative % of Total Dose, Urine ([1]; radioactivity, 8-12 hr): 0.041%
Cumulative % of Total Dose, Urine ([1]; radioactivity, 12-24 hr): 0.058%
Cumulative % of Total Dose, Feces ([1]; radioactivity, 24-48 hr): 49.878%
Cumulative % of Total Dose, Urine ([1]; radioactivity, 24-48 hr): 0.057%
Cumulative % of Total Dose, Feces ([1]; radioactivity, 48-72 hr): 67.630%
Cumulative % of Total Dose, Urine ([1]; radioactivity, 48-72 hr): 0.062%
Cumulative % of Total Dose, Feces ([1]; radioactivity, 72-96 hr): 69.653%
Cumulative % of Total Dose, Urine ([1]; radioactivity, 72-96 hr): 0.063%
Cumulative % of Total Dose, Feces ([1]; radioactivity, 96-120 hr): 71.606%
Cumulative % of Total Dose, Urine ([1]; radioactivity, 96-120 hr): 0.063%
Cumulative % of Total Dose, Feces ([1]; radioactivity, 120-144 hr): 71.771%
Cumulative % of Total Dose, Urine ([1]; radioactivity, 120-144 hr): 0.064%
Cumulative % of Total Dose, Feces ([1]; radioactivity, 144-168 hr): 71.815%
Cumulative % of Total Dose, Urine ([1]; radioactivity, 144-168 hr): 0.066%
Cumulative % of Total Dose, Feces ([1]; radioactivity, 168-192 hr): 71.885%
Cumulative % of Total Dose, Feces ([1]; radioactivity, 192-216 hr): 71.885%
Cumulative % of Total Dose, Feces ([1]; radioactivity, incl. Toilet Paper (cumulative recovery from first five fecal samples)): 72.466%
HDL-cholesterol (serum cholesterol; 5 mg/kg/day): 127 ± 10 mg/dL
HDL-cholesterol, % change from vehicle group (serum cholesterol; 5 mg/kg/day): (−22) %
Non-HDL-cholesterol (serum cholesterol; 5 mg/kg/day): 99 ± 9 mg/dL
Non-HDL-cholesterol, % change from vehicle group (serum cholesterol; 5 mg/kg/day): (−37) %
Serum Total Cholesterol (serum cholesterol; 5 mg/kg/day): 225 ± 16 mg/dL
Serum Total Cholesterol, % change from vehicle group (serum cholesterol; 5 mg/kg/day): (−29) %
HDL-cholesterol (serum cholesterol; 15 mg/kg/day): 115 ± 7 mg/dL
HDL-cholesterol, % change from vehicle group (serum cholesterol; 15 mg/kg/day): (−29) %
Non-HDL-cholesterol (serum cholesterol; 15 mg/kg/day): 86 ± 8 mg/dL
Non-HDL-cholesterol, % change from vehicle group (serum cholesterol; 15 mg/kg/day): (−45) %
Serum Total Cholesterol (serum cholesterol; 15 mg/kg/day): 201 ± 14 mg/dL
Serum Total Cholesterol, % change from vehicle group (serum cholesterol; 15 mg/kg/day): (−37) %
HDL-cholesterol (serum cholesterol; 50 mg/kg/day): 102 ± 4 mg/dL
HDL-cholesterol, % change from vehicle group (serum cholesterol; 50 mg/kg/day): (−37) %
Non-HDL-cholesterol (serum cholesterol; 50 mg/kg/day): 76 ± 4 mg/dL
Non-HDL-cholesterol, % change from vehicle group (serum cholesterol; 50 mg/kg/day): (−52) %
Serum Total Cholesterol (serum cholesterol; 50 mg/kg/day): 178 ± 6 mg/dL
Serum Total Cholesterol, % change from vehicle group (serum cholesterol; 50 mg/kg/day): (−44) %
